The source made the active and inactive calls.

The target of assay [1] is T1, Sentrin-specific protease 6 (Homo sapiens, UniProt Q9GZR1).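 Further: Luminescence-based dose-response confirmatory assay of SENP6 inhibition, following up an ultra-high-throughput screen.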
T1 sequence (Q9GZR1 whole entry): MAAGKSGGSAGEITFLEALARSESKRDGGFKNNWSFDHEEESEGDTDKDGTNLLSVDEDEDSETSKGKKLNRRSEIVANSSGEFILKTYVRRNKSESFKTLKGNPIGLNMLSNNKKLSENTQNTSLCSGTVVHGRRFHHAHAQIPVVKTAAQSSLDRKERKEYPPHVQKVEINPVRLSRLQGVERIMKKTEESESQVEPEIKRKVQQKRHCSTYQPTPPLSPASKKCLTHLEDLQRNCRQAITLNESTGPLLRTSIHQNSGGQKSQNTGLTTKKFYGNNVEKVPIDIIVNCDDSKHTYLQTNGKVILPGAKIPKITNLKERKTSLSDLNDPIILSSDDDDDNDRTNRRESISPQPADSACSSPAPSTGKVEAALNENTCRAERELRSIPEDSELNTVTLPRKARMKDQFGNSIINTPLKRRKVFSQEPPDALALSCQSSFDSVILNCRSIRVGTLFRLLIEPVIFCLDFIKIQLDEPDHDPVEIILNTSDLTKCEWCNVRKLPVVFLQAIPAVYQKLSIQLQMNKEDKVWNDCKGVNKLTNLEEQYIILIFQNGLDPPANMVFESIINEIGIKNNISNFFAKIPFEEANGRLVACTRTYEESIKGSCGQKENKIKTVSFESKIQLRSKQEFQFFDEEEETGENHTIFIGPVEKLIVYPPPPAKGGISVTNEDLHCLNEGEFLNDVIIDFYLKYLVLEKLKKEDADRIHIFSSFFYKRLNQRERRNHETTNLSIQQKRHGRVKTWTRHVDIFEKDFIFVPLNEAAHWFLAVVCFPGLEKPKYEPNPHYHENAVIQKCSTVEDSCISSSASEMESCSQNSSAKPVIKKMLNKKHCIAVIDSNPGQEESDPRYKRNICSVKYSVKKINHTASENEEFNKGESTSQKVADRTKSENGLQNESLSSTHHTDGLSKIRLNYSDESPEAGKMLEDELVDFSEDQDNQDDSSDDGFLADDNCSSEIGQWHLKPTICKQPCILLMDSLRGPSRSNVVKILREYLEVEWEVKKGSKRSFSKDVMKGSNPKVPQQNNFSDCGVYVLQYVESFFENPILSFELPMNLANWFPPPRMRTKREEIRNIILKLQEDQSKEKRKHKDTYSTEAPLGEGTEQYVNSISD
It counts as functional.

The target of assay [2] is T2, Sentrin-specific protease 8 (Homo sapiens, UniProt Q96LD8).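 Further: luminescence read-out of SENP8 inhibition, dose-response confirmation following an ultra-high-throughput screen.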
T2 sequence (Q96LD8 whole entry): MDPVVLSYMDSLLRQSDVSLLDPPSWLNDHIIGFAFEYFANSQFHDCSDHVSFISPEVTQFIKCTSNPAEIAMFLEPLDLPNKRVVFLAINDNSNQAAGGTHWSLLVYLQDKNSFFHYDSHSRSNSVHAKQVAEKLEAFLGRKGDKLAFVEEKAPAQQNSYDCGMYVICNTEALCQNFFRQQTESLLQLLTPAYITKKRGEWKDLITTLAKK
The class given is functional.

The subject of another assay is H4. Nature of the assay: Luminescence Cell-Based Dose Response HTS to Identify Activators of 5'UTR Stem-Loop Driven Prion Protein mRNA Translation in H4 Neuroglioblastoma Cells. [Related pubchem assays: 1829 (Project Summary), 1814 (Primary HTS)]. It counts as functional. The note with it: Homo sapiens.
Assay [3] has as its target T3, Sentrin-specific protease 7 (Homo sapiens, UniProt Q9BQF6).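 Further: Luminescence-based dose-response confirmation of ultra-high-throughput screening hits, measuring inhibition of SENP7.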
T3 sequence (Q9BQF6 whole entry): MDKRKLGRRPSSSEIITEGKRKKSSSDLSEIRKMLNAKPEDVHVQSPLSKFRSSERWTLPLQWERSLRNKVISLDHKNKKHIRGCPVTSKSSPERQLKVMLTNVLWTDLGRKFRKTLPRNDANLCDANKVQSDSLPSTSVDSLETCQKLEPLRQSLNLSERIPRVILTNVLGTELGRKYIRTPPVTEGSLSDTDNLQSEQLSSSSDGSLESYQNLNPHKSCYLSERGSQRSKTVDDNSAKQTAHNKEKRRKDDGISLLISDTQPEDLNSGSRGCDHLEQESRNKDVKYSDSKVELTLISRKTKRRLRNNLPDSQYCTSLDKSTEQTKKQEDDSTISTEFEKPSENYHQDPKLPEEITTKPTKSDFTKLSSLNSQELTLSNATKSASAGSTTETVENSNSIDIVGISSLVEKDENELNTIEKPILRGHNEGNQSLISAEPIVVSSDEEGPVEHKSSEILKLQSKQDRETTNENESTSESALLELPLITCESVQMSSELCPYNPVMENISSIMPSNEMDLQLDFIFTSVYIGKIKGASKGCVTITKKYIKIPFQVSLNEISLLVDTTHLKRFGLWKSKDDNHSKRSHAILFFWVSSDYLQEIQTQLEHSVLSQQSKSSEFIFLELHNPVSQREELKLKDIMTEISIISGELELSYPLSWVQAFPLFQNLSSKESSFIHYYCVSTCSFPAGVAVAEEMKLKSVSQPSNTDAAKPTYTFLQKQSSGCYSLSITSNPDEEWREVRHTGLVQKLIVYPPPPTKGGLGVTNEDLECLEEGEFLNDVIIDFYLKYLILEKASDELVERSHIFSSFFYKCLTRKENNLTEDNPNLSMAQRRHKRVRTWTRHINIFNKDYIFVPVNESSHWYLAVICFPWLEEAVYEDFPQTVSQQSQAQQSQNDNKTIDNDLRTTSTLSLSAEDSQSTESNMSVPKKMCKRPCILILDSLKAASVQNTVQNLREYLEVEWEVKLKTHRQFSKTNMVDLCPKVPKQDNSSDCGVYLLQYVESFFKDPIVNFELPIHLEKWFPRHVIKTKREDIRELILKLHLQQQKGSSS
It counts as functional.

The target in another assay is Estrogen receptor beta (Homo sapiens, UniProt Q92731).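 Further: recombinant ER-beta bound to coactivator SRC1 peptide in presence of estradiol agonist; inhibitors block coactivator peptide binding and lower the FRET signal.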
Chain of Estrogen receptor beta (Q92731 whole entry): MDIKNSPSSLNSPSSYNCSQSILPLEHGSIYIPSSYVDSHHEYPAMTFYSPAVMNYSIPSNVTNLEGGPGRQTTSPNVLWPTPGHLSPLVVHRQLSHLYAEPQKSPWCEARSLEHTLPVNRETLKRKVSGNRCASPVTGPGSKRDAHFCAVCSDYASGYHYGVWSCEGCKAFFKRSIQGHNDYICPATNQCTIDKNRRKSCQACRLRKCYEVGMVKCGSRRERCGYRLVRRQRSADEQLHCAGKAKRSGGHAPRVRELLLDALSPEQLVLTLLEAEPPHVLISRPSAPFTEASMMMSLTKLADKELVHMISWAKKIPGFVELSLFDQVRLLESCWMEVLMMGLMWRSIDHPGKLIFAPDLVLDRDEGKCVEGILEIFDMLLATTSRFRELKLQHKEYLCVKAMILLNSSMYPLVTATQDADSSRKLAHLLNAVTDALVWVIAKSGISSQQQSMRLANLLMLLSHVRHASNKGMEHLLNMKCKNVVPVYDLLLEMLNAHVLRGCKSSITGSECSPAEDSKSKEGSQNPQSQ
Assay [4] is described as follows: Luminescence Cell-Based Dose Confirmation HTS to Identify Activators of 5'UTR Stem-Loop Driven Alpha-Synuclein mRNA Translation in H4 Neuroglioblastoma Cells. [Related pubchem assays: 1829 (Project Summary), 1814 (Primary HTS)]. The class given is functional.
A short description of assay [5]: Luminescence Cell-Based Dose Response HTS to Identify Activators of Luciferase Translation or Activity in H4 […] Cells. [Related pubchem assays: 1829 (Project Summary), 1814 (Primary HTS)]. It counts as functional.
The next assay concerns the target T4, Caspase-3 (Homo sapiens, UniProt P42574).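 Further: Dose-response selectivity test against caspase-3 for candidate inhibitors of sentrin-specific proteases (SENPs).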
T4 sequence (P42574 whole entry): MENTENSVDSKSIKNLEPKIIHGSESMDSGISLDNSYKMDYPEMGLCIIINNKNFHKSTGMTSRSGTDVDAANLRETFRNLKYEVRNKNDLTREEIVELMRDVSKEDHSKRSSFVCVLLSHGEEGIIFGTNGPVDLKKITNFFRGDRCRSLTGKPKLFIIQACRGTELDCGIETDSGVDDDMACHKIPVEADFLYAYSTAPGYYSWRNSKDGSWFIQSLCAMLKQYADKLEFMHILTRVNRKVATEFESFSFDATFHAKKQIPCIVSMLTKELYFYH
It counts as functional.

A further assay deals with T5, Estrogen receptor (Homo sapiens, UniProt P03372).
T5 sequence (P03372 whole entry): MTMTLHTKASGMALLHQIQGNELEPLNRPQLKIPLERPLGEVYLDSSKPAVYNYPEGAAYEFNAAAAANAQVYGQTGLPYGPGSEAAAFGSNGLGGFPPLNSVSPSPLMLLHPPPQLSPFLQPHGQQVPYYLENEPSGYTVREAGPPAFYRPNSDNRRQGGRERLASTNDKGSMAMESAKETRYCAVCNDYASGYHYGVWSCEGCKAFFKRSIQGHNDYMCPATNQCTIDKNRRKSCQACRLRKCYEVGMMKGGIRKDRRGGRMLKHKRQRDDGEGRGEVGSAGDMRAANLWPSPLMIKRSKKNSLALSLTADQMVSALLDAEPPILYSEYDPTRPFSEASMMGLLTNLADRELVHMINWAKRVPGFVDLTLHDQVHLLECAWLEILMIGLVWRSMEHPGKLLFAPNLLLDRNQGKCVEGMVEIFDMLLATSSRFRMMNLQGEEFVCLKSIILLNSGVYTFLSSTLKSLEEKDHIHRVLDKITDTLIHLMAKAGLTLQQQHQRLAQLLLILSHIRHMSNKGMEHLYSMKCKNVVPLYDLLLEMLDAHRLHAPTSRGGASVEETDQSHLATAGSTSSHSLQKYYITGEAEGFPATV

A short description of assay [6]: A Cell Based Secondary Assay To Explore Cytotoxicity of Compounds that Sensitize Mycobacterium Tuberculosis to Beta-Lactam Antibiotics. The class given is functional.
A short description of assay [7]: HEp-2 cell cytotoxicity, dose response, cytotoxicity control for RSV inhibitor project, HTS (AID 2410). The class given is functional. The note with it: human respiratory syncytial virus.
Assay [8] is described as follows: growth suppression of beta-catenin-knockout colon cells, dose response, cell-based, HCT116, human colon tumor (AID 1045).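 Further: HCT116 colon tumor cells with beta catenin knocked out; cells exposed to compound for 60 hours.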 The class given is functional.
A short description of assay [9]: growth suppression of PTEN-null colon cells, dose response, cell-based, HCT116 PTEN knockout (AID 1047).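 Further: HCT116 colon tumor cells with PTEN knocked out; cells exposed to compound for 60 hours before readout; potency for loss of cell viability measured by luminescence.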 The class given is functional.

A word on the IC50: it is the midpoint of a concentration-inhibition curve. Broadly, the EC50 is the concentration giving half of the maximal effect. For `c1ccc(-c2nc(C3CCCCC3)no2)cc1`, the IC50 was 66.3 µM (active) in assay [1]; > 100 µM (inactive) in assay [2]; 23.2 µM (active) in [3]; > 50 µM (not active) at Estrogen receptor beta; 57.1 µM (active) at Caspase-3. Besides, the EC50 in the assay with H4 was > 120 µM (not active); in assay [4], 32.8 µM (active); in [5], 0.896 µM (active).
Consider `COC(=O)c1ccc2c(c1)N(Cc1nc(-c3cccc(C)c3)oc1C)C(=O)C1CCCN21` (stereo not drawn), for which the IC50 on Estrogen receptor is recorded as > 50 µM (not active).
`CC(=O)N(C(C)=O)c1c(C#N)c(C)n(-c2ccccc2)c1C(=O)c1ccccc1`: the IC50 against Estrogen receptor is recorded as > 50 µM (not active).
The same measure, in the same setting: in the case of `Cc1cc(C)n2nc(SCc3cc(=O)oc4cc(O)ccc34)nc2n1` it was 10.1 µM (active).
The CC50 is the concentration giving 50% cytotoxicity. For `Cc1nc2sc3c(c2c2nnc(SCC(=O)NCc4ccco4)n12)CCCC3`, the CC50 in [6] was 31.8 µM (active).
The same measure, in the same setting: in the case of `CCC(C)NCCOCCOc1ccc(Cl)c2ccccc12` (stereo not drawn) it was 18.4 µM (active).
Turning to `COC(=O)C1=C(C)NC(=O)/C1=C\c1cc(C)n(-c2c(C)cccc2C)c1C`, the CC50 in assay [7] was 1.88 µM (active); in [6] it was > 40 µM (active).
Turning to `Cc1ccsc1/C=N/Nc1ncc(Cl)cc1Cl`, the CC50 in [6] is 32.4 µM (active). Moreover, the EC50 in assay [8] was 15.5 µM (active); in [9], 12.9 µM (active).

The values are drawn from ChEMBL document CHEMBL1201862, “PubChem BioAssay data set” (2004).
